Source: PubChem BioAssay AID652 (University of Pittsburgh Molecular Library Screening Center, 2007)

Target: Gag-Pol polyprotein (Human immunodeficiency virus type 1 group M subtype B (isolate HXB2)) (UniProt P04585)
Assay: HIV-1 RT RNase H inhibitor potency, dose response, biochemical, probe assessment (AID 652)
Settings: HIV-1 RT RNase H enzymatic assay; for inhibition: at 50 µM, stronger effect = higher value

SMILES	inhibition [%]	IC50 [µM]
CC1CCN(S(=O)(=O)c2ccc(NC(=O)Cn3nnc(-c4ccccc4)n3)cc2)CC1	61.5	–
Cc1cc(C)c(C#N)c(=N)o1	83	–
Cc1nn(CCC#N)c2c1P(=S)(N1CCCC1)OC(c1ccc(F)cc1)=N2 (stereo unspecified)	90.2	–
CCn1c2ccccc2c2nc3cc(S(=O)(=O)N4CCOCC4)ccc3nc21	88.9	–
Cc1ccccc1NC(=O)CSc1nc2c(c(-c3ccco3)c1C#N)CCCC2	97.2	–
CN1CSC2=C(C#N)C(c3cccc(OCc4ccccc4)c3)CC(=O)N2C1 (stereo unspecified)	89.7	–
O=C(CSc1nc2c([nH]c3ccccc32)c(=O)n1-c1cccc(Cl)c1)N1CCOCC1	82.5	23.4
CSc1ccc(C2C(C#N)=C(N)Oc3c2ccc(=O)c2c(C)oc(C)c32)cc1 (stereo unspecified)	77.4	5.81
COc1ccc(N2CSC3=C(C#N)C(c4ccc(OC)c(OC)c4)CC(=O)N3C2)c(OC)c1 (stereo unspecified)	79.7	–
COc1ccc(N2CCN(Cc3cc(=O)oc4cc(C)c(Cl)c(C)c34)CC2)cc1	96	–
CC(C)(C)C1=Nn2c(nnc2-c2ccccn2)SC1	80.5	–
Cc1ccc(-c2cc(C(F)F)n3ncc(C(=O)NCc4ccco4)c3n2)cc1	93	–
COc1ccc(C2C(C#N)=C(N)N3C(=C2C#N)Sc2ccccc23)cc1 (stereo unspecified)	92	3.35
CCOC(=O)N1CC=C2C(C#N)=C(N)C(C#N)(C#N)[C@H](c3ccc(OC(C)C)c(OCC)c3)[C@H]2C1	98.5	21.7
c1ccc2c(c1)nnn2Cc1nnc2sc(-c3ccc4c(c3)OCCO4)nn12	85.3	–
COC(=O)c1oc2ccc(Br)cc2c1NC(=O)c1ccccc1	94	–
N#Cc1c(-c2cccnc2)c2c([nH]c1=S)CCCC2	77.9	10.2
N#Cc1cc(-c2ccccc2)nn1-c1ccccc1	99.4	–
O=C(CCSCCC(=O)NCc1ccco1)NCc1ccco1	98.4	0.953
Cc1cccc(-n2c(N)c(C(=O)N3CCN(C)CC3)sc2=S)c1	41.7	–
COc1ccc(C2c3c(oc4ccc(Cl)cc4c3=O)C(=O)N2Cc2ccco2)cc1OC (stereo unspecified)	95.9	–

SMILES	inhibition [%]	IC50 [µM]
Fc1ccc(-c2nnc3sc(-c4ccc5c(c4)OCO5)nn23)cc1	72.3	–
Nc1sc2c(c1C(=O)NC1CCS(=O)(=O)C1)CCC2 (stereo unspecified)	74.5	–
O=C(COc1ccc(Cl)cc1)Nc1nnc(-c2ccc3c(c2)CCCC3)o1	83.7	4.49
Cc1ccc(-n2c(N)c(C(N)=O)sc2=S)cc1	83.3	–
COC(=O)N(c1ccc(OC)cc1)P1(=S)OCCC(C)O1 (stereo unspecified)	87.5	–
O=C1CC(c2ccco2)Cc2nc(Nc3nc(-c4ccccc4)c4ccccc4n3)ncc21 (stereo unspecified)	53.7	–
CCOC(=O)N(c1ccccc1)P1(=S)OCCO1	85.5	–
Cc1cc(NC(=O)CSc2nc3cc4c(cc3c(=O)n2CCc2ccccc2)OCO4)no1	76.9	–
S=C(Nc1ccccn1)c1ccccn1	85.8	4.96
Cc1cc(C)c2oc(-c3ccc(Cl)c(NC(=O)c4ccc(C#N)cc4F)c3)nc2c1	91	–
Cc1ccc(-n2c(N)c(C(=O)N3CCN(C)CC3)sc2=S)cc1	53.5	–
CC(Cc1ccc(O)c(O)c1)C(C)Cc1ccc(O)c(O)c1 (stereo unspecified)	99	–
COC(=O)c1ccccc1NC(=O)c1sc(=S)n(C)c1N	101	–
CCOC(=O)C1CCCN(C(=O)Cn2sc3nc(C)cc(C)c3c2=O)C1 (stereo unspecified)	69.6	–
Clc1ccccc1-c1nn2c(-c3ccncc3)nnc2s1	79.3	–
COc1ccc(OC)c(CCNC(=O)Cn2sc3nc(C)cc(C)c3c2=O)c1	91.6	–
COc1ccc(OC)c(Nc2nc(-c3ccc(O)c(O)c3)cs2)c1	97.8	–
CCOC(=O)CSc1nc2cc(C(=O)NCc3ccco3)ccc2c(=O)n1C1CCCCC1	89	–
Nc1c(C(=O)N2CCOCC2)sc(=S)n1-c1ccccc1	75.2	–
CC(C)(C)c1ccc(-c2nnc3sc(-c4ccncc4)nn23)cc1	96.3	–
C=CCOC(=O)C1=C(C)NC(SCC(=O)Nc2ccc(C)c(Cl)c2)=C(C#N)C1c1ccco1 (stereo unspecified)	98.7	4.25
